Experimental data reported in patent publication US20250082624A1, “METHODS OF TREATING COGNITIVE IMPAIRMENT” (NeuroTherapia, Inc., priority 2023, published 2025).
“Also recorded” adds a separate entry of the source.

Assays:
[1] = Two-compartment PK model of NTRX-07 plasma data (fit and dose predictions); set-up: species or system human; settings: compartmental PK model; for AUC24 h accumulation / Cmax accumulation: over 7 days
Experimental: Predictive compartmental PK analysis was utilized during dose escalation to predict PK outcomes at higher dose levels based on data from lower ones.
FIGS. 22A and 22B show the mathematical model with a simultaneous fit to data from all four cohorts (excluding fed subject data).
Compartmental analysis was performed using a two-compartment model with extravascular administration. Modeling was performed using a sophisticated MS Excel workbook developed by PharmaDirections.
FIGS. 24A-B show the mathematical model (heavy blue line) fit to the Cohort A data. The model will be further refined as data from additional cohorts become available. In particular, the terminal slope may change some, as the current data set is inadequate to define it. The model was built based on geometric mean data, but timepoint data were not used in cases where plasma concentrations were below the limit of quantitation for four or more of the six subjects.
Note that the model estimates are somewhat higher than those obtained from non-compartmental analysis since they consider the entire dosing interval as opposed to only the time points for which data are available.
These predictions are based on an assumption of linear PK across the specified dose range, and parameters could be underestimated if a saturable process limits bioavailability or is involved in drug clearance. Current data are insufficient to determine whether any saturable processes are involved in NTRX-007 uptake or clearance.
(§1) Compartmental analysis was performed based on a two-compartment model with extravascular administration. Modeling was performed using a sophisticated MS Excel workbook developed by PharmaDirections. Geometric mean data from Cohorts A and B were used to determine weighted least squares best fits for the PK parameters.
FIGS. 26A-26B show the mathematical model (heavy blue line) fit to the Cohort B data. The model was built based on geometric mean data, but timepoint data were not used in cases where plasma concentrations were below the limit of quantitation for four or more of the seven subjects.
as §1, with “A, B,” for “A”, “C” for “B”
The model predicts somewhat higher exposure for b.i.d. dosing.
as §1, with “A, B, C,” for “A”, “D” for “B”

[2] = system: APP/PS1 mouse model of AD; settings: cited from earlier work

CC1(Cc2ccccc2)COc2cc(C(=O)N3CCCCC3)ccc21 (stereo not drawn) [NTRX-07, 3-benzyl-3-methyl-2,3-dihydrobenzofuran-6-carboxylic acid-piperidine amide] gave an AUC24 h ([1]; 40 mg SDD QD, Day 1) of 96 ng·h/mL, a Cmax ([1]; 40 mg SDD QD, Day 1) of 43.9 ng/mL and a Cmin ([1]; 40 mg SDD QD, Day 1) of 0.0 ng/mL. The Tmax ([1]; 40 mg SDD QD, Day 1) was 4.8 min, the AUC24 h ([1]; 40 mg SDD QD, Day 2) was 100 ng·h/mL and the Cmax ([1]; 40 mg SDD QD, Day 2) was 44.3 ng/mL. For the same compound, the Cmin ([1]; 40 mg SDD QD, Day 2) was 0.4 ng/mL, the Tmax ([1]; 40 mg SDD QD, Day 2) was 4.8 min and the AUC24 h ([1]; 40 mg SDD QD, Day 3) was 101 ng·h/mL. The Cmax ([1]; 40 mg SDD QD, Day 3) was 44.4 ng/mL, the Cmin ([1]; 40 mg SDD QD, Day 3) was 0.5 ng/mL and the Tmax ([1]; 40 mg SDD QD, Day 3) was 4.8 min. The AUC24 h ([1]; 40 mg SDD QD, Day 4) was 101 ng·h/mL, the Cmax ([1]; 40 mg SDD QD, Day 4) was 44.4 ng/mL and the Cmin ([1]; 40 mg SDD QD, Day 4) was 0.5 ng/mL. For the same compound, the Tmax ([1]; 40 mg SDD QD, Day 4) was 4.8 min, the AUC24 h ([1]; 40 mg SDD QD, Day 5) was 101 ng·h/mL and the Cmax ([1]; 40 mg SDD QD, Day 5) was 44.4 ng/mL. It also gave a Cmin ([1]; 40 mg SDD QD, Day 5) of 0.5 ng/mL, a Tmax ([1]; 40 mg SDD QD, Day 5) of 4.8 min and an AUC24 h ([1]; 40 mg SDD QD, Day 6) of 101 ng·h/mL. It also gave a Cmax ([1]; 40 mg SDD QD, Day 6) of 44.4 ng/mL, a Cmin ([1]; 40 mg SDD QD, Day 6) of 0.5 ng/mL and a Tmax ([1]; 40 mg SDD QD, Day 6) of 4.8 min. For the same compound, the AUC24 h ([1]; 40 mg SDD QD, Day 7) was 101 ng·h/mL, the Cmax ([1]; 40 mg SDD QD, Day 7) was 44.4 ng/mL and the Cmin ([1]; 40 mg SDD QD, Day 7) was 0.5 ng/mL. It also gave a Tmax ([1]; 40 mg SDD QD, Day 7) of 4.8 min, an AUC24 h accumulation ([1]; 40 mg SDD QD) of 104% and a Cmax accumulation ([1]; 40 mg SDD QD) of 101%. It also gave an AUC24 h ([1]; 120 mg SDD QD, Day 1) of 210 ng·h/mL, a Cmax ([1]; 120 mg SDD QD, Day 1) of 74.6 ng/mL and a Tmax ([1]; 120 mg SDD QD, Day 1) of 37.8 min. For the same compound, the AUC24 h ([1]; 120 mg SDD QD, Day 2) was 227 ng·h/mL, the Cmax ([1]; 120 mg SDD QD, Day 2) was 76.1 ng/mL and the Cmin ([1]; 120 mg SDD QD, Day 2) was 1.5 ng/mL. It also gave a Tmax ([1]; 120 mg SDD QD, Day 2) of 37.8 min, an AUC24 h ([1]; 120 mg SDD QD, Day 3) of 230 ng·h/mL and a Cmax ([1]; 120 mg SDD QD, Day 3) of 76.3 ng/mL. For the same compound, the Cmin ([1]; 120 mg SDD QD, Day 3) was 1.8 ng/mL, the Tmax ([1]; 120 mg SDD QD, Day 3) was 37.8 min and the AUC24 h ([1]; 120 mg SDD QD, Day 4) was 231 ng·h/mL. The Cmax ([1]; 120 mg SDD QD, Day 4) was 76.4 ng/mL, the Cmin ([1]; 120 mg SDD QD, Day 4) was 1.8 ng/mL and the Tmax ([1]; 120 mg SDD QD, Day 4) was 37.8 min. It also gave an AUC24 h ([1]; 120 mg SDD QD, Day 5) of 231 ng·h/mL, a Cmax ([1]; 120 mg SDD QD, Day 5) of 76.4 ng/mL and a Cmin ([1]; 120 mg SDD QD, Day 5) of 1.8 ng/mL. For the same compound, the Tmax ([1]; 120 mg SDD QD, Day 5) was 37.8 min, the AUC24 h ([1]; 120 mg SDD QD, Day 6) was 231 ng·h/mL and the Cmax ([1]; 120 mg SDD QD, Day 6) was 76.4 ng/mL. For the same compound, the Cmin ([1]; 120 mg SDD QD, Day 6) was 1.8 ng/mL, the Tmax ([1]; 120 mg SDD QD, Day 6) was 37.8 min and the AUC24 h ([1]; 120 mg SDD QD, Day 7) was 231 ng·h/mL. For the same compound, the Cmax ([1]; 120 mg SDD QD, Day 7) was 76.4 ng/mL, the Cmin ([1]; 120 mg SDD QD, Day 7) was 1.8 ng/mL and the Tmax ([1]; 120 mg SDD QD, Day 7) was 37.8 min. For the same compound, the AUC24 h accumulation ([1]; 120 mg SDD QD) was 110%, the Cmax accumulation ([1]; 120 mg SDD QD) was 102% and the AUC24 h ([1]; 360 mg SDD QD, Day 1) was 559 ng·h/mL. It also gave a Cmax ([1]; 360 mg SDD QD, Day 1) of 162.0 ng/mL, a Tmax ([1]; 360 mg SDD QD, Day 1) of 47.4 min and an AUC24 h ([1]; 360 mg SDD QD, Day 2) of 616 ng·h/mL. The Cmax ([1]; 360 mg SDD QD, Day 2) was 166.4 ng/mL, the Cmin ([1]; 360 mg SDD QD, Day 2) was 4.7 ng/mL and the Tmax ([1]; 360 mg SDD QD, Day 2) was 47.4 min. For the same compound, the AUC24 h ([1]; 360 mg SDD QD, Day 3) was 628 ng·h/mL, the Cmax ([1]; 360 mg SDD QD, Day 3) was 167.4 ng/mL and the Cmin ([1]; 360 mg SDD QD, Day 3) was 5.4 ng/mL. It also gave a Tmax ([1]; 360 mg SDD QD, Day 3) of 47.4 min, an AUC24 h ([1]; 360 mg SDD QD, Day 4) of 631 ng·h/mL and a Cmax ([1]; 360 mg SDD QD, Day 4) of 167.6 ng/mL. The Cmin ([1]; 360 mg SDD QD, Day 4) was 5.7 ng/mL, the Tmax ([1]; 360 mg SDD QD, Day 4) was 47.4 min and the AUC24 h ([1]; 360 mg SDD QD, Day 5) was 631 ng·h/mL. It also gave a Cmax ([1]; 360 mg SDD QD, Day 5) of 167.6 ng/mL, a Cmin ([1]; 360 mg SDD QD, Day 5) of 5.7 ng/mL and a Tmax ([1]; 360 mg SDD QD, Day 5) of 47.4 min. It also gave an AUC24 h ([1]; 360 mg SDD QD, Day 6) of 631 ng·h/mL, a Cmax ([1]; 360 mg SDD QD, Day 6) of 167.6 ng/mL and a Cmin ([1]; 360 mg SDD QD, Day 6) of 5.7 ng/mL. For the same compound, the Tmax ([1]; 360 mg SDD QD, Day 6) was 47.4 min, the AUC24 h ([1]; 360 mg SDD QD, Day 7) was 631 ng·h/mL and the Cmax ([1]; 360 mg SDD QD, Day 7) was 167.6 ng/mL. It also gave a Cmin ([1]; 360 mg SDD QD, Day 7) of 5.7 ng/mL, a Tmax ([1]; 360 mg SDD QD, Day 7) of 47.4 min and an AUC24 h accumulation ([1]; 360 mg SDD QD) of 113%. The Cmax accumulation ([1]; 360 mg SDD QD) was 103%, the “Clearance of Aβ” value ([2]; AD models, FIG. 4) was “improved clearance of A-beta proteins; also recorded: increases clearance of Aβ” and the Aβ plaque clearance ([2]; APP/PS1 (Tg(APPswe,PSEN1dE9)85Dbo) mouse, FIG. 5) was “promotes Aβ plaque clearance”. The “CB2 increase / Iba1 colocalization in microglia (microglial activation)” value ([2]; APP/PS1 mouse model of AD, FIG. 3) was “returned towards baseline”, the “Inflammatory changes in the brain” value ([2]; preclinical AD models) was “decreased inflammatory changes in the brain” and the Long-term potentiation ([2]; preclinical AD models) was “improved long-term potentiation”.
